Assay [1] relates to BMDMs. The assay is classed as cell-based, mouse. The settings on record: zVAD 20 μM. On the procedure: Cell death assays. Cell viability and Caspase 3/7 activity were measured using CellTiter Glo (G7571, Promega) or CaspaseGlo 3/7 (G8091, Promega) respectively, according to the manufacturer's protocol, with modification.
Cell death assays. Cell viability and Caspase 3/7 activity were measured using CellTiter Glo (G7571, Promega) or CaspaseGlo 3/7 (G8091, Promega) respectively, according to the manufacturer's protocol, with modification. Briefly, 3.0×10^5 BMDMs/well were plated in 24-well plates and infected at an MOI of 0.1 for 1 h in serum-free media. Media was replaced with complete media, or for addition of chemical inhibitors, viral inoculum was replaced with completed BMM media containing indicated concentration of inhibitors. Infected BMDMs were incubated for 24h at 37° C./5% CO2. BMDMs were washed twice with 1×PBS and lysed with 100 μL Glo reagent/medium mixture (1:1). 50 μL of cell lysate was used for measuring the luminescence signal. Standard deviation and unpaired t test were performed on technical triplicates and data are representative of three independent experiments. Graphs of cell viability were generated using Prism 7 software (GraphPad Software, Inc.).

Assay [2] concerns BMDMs. The assay is classed as cell-based, mouse. Particulars: N15m1-infected BMDMs, MOI 0.1, 18 hpi; zVAD 20 μM, C16 1 μM. On the procedure: Bioanalyzer RNA analysis. Equal amounts of total RNA purified from BMDMs were analyzed on an Agilent 2100 Bioanalyzer using RNA Nano LabChips.

For the substance zVAD, the “prevention of virus-induced cell death by inhibitor” value in assay [1] (N15m1-infected BMDMs, 24 hpi, Nec-1 25 μM, VX-765 20 μM) is “prevented virus-induced cell death”. In addition, in assay [1] (C16 1 μM), the “effect of inhibitor on caspase 3/7 activation in N15m1-infected BMDMs” value is listed as “inhibited by zVAD”. Further, the “effect of inhibitor on degradation of host rRNA” value in assay [2] was “not inhibited”.

(Values after patent US11684667B2 (priority 2017, dated 2023).)
